# Columns and labels:
# [1] = system: cat patients with every possible phenotype of cardiomyopathy (HCM, RCM, UCM, DCM and ARVC); assay: Clinical field study in client-owned cat patients with cardiomyopathy (Example 1); format: in vivo; details: 1 mg/kg bodyweight orally once daily
# Experimental: Client-owned cat patients (older than 1 year) with every possible phenotype of cardiomyopathy (HCM, RCM, UCM, DCM and ARVC) with or without clinical symptoms (e.g. congestive heart failure) are treated orally and once daily with a velagliflozin dosage of 1 mg/kg bodyweight.
# During the study period the body weight, body condition score, blood pressure and the cardiovascular system (including heart rates, rhythm, presence of gallop sound or murmur and intensity) are examined on a regular basis during the visits at the site by the investigator. Additionally, thoracic radiographs (in the right lateral and dorso ventral view), echocardiography (including LV septal & free wall thickness, LVIDD, LVIDS (FS %), LA/Ao, LAD, ejection fraction) and electrocardiography are performed. In order to obtain an overview as complete as possible regular blood tests include a complete hematology (white blood cells (WBC), WBC differential, red blood cells, hemoglobin, hematocrit, Heinz bodies, platelet count), a biochemistry panel (total protein, Albumin, Globulin, Alkaline phosphatase (ALP), Alanine transaminase (ALT), Aspartate transaminase (AST), Total bilirubin, Creatinine, Blood urea nitrogen or urea (BUN), Calcium, Sodium, Potassium, Chloride, Phosphorus, Glucose, Cholesterol, Triglycerides, Fructosamine), the measurement of total T4, ketone bodies and cardiac biomarkers (Plasma NT-pro BNP, Cardiac troponin I, ST2).
# Variables of interest are the number of events defined as cardiac death, cardiac related euthanasia and (re-) occurrence of congestive heart failure and the time to event (survival time of the cat patients).
# [2] = system: cats with hypertrophic cardiomyopathy (HCM) and recent heart failure; assay: Exploratory clinical field study of velagliflozin in cats (Example 2, case 101); format: in vivo; details: for NT-proBNP: cardiac biomarker, screening (D −7) 177; for NT-proBNP / Grade of murmur / Resting respiratory rate / Heart rate / Point of maximum intensity / Presence of arrythmia / Presence of gallop sound / Timing of murmur / Presence of murmur / LA/Ao (left atrium to aorta ratio) / LAD max (mm) (Left atrium measured as right parasternal long-axis): cat 101, 1 mg/kg orally once per day; for BPM (mmHG): cat 101, 1 mg/kg bodyweight orally once per day, screening (D −7) 128; for Grade of murmur: screening (D −7) 4; for Resting respiratory rate: screening (D −7) 28; for Heart rate: screening (D −7) 140; for Point of maximum intensity: screening (D −7) left apical; for Presence of arrythmia / Presence of gallop sound: screening (D −7) no; for Timing of murmur: screening (D −7) systolic; for Presence of murmur: screening (D −7) yes; for LA/Ao (left atrium to aorta ratio) / LAD max (mm) (Left atrium measured as right parasternal long-axis): echocardiography; for LA/Ao (left atrium to aorta ratio): screening (D −7) 1.63; for LAD max (mm) (Left atrium measured as right parasternal long-axis): screening (D −7) 16.3
# Text: In an exploratory clinical field study (prospective, baseline controlled, open label and multi-site) under real world conditions, four cats were screened for eligibility for compassionate use of velagliflozin to treat cardiomyopathies and heart failure in cats. […] Due to non-compliance to treatment regime of one pet owner only one cat remained in the study over the complete planned time period of 90 days. Clinical symptoms (evaluated in a physical examination according to Good Veterinary Practice), echocardiographic parameters (always done by the same person at each visit and according to the ACVIM consensus statement guidelines for the classification, diagnosis, and management of cardiomyopathies in cats), blood parameters (evaluated by IDEXX Bioresearch Laboratories, Germany), number of events (re-occurrence of heart failure, cardiac related death or euthanasia) and time to event in days were documented at each visit on the respective Case Report Form.
# Case 101 was a 10 years old, female spayed Maine Coon cat, diagnosed with hypertrophic cardiomyopathy (HCM) and previous congestive heart failure.
# LA (Left atrium dimension measured as right parasternal short-axis); Ao (Aortic root diameter); LA/Ao, left atrium to aorta ratio; IVSd (interventricular septal end diastolic dimension, i.e. the thickness of the interventricular septum); LAD (Left atrium measured as right parasternal long-axis)
# [3] = Plasma NEFA, cholesterol and BHB in cats before and after four week treatment (FIG. 1); format: in vivo, cat; details: end of four week treatment period (post) vs pre, versus control
# Text: A significant treatment effect, an increase in blood lipids (NEFA, cholesterol) and plasma concentrations of BHB is noted.
# [4] = compared to placebo on top of standard of care
# [5] = cat 101, treatment period Day 1 until Day 90, 1 mg/kg orally once per day
smiles,measurement,setting,value
"N#Cc1ccc([C@@H]2O[C@H](CO)[C@@H](O)[C@H](O)[C@H]2O)cc1Cc1ccc(C2CC2)cc1 [velagliflozin, Velagliflozin]","clinical parameters (e.g. appetite, activity level and breathing)",[1]; compared to placebo on top of SoC,improve significantly
same,survival time,[1]; [4],significant and clinically relevant prolongation
same,time to event (cardiac death/euthanasia and (re-)occurrence of congestive heart failure),[1]; [4],significant and clinically relevant prolongation
same,NT-proBNP,[2]; Visit 2 (D 45),104 pmol/L
same,NT-proBNP,[2]; Visit 3 (D 90),39 pmol/L
same,BPM (mmHG),[2]; Visit 2 (D 45),136 mmHG
same,BPM (mmHG),[2]; Visit 3 (D 90),124 mmHG
same,Grade of murmur,[2]; Visit 2 (D 45),3
same,Resting respiratory rate,[2]; Visit 2 (D 45),34
same,Heart rate,[2]; Visit 2 (D 45),180
same,Point of maximum intensity,[2]; Visit 2 (D 45),left apical
same,Presence of arrythmia,[2]; Visit 2 (D 45),no
same,Presence of gallop sound,[2]; Visit 2 (D 45),no
same,Timing of murmur,[2]; Visit 2 (D 45),systolic
same,Presence of murmur,[2]; Visit 2 (D 45),yes
same,Grade of murmur,[2]; Visit 3 (D 90),2
same,Resting respiratory rate,[2]; Visit 3 (D 90),34
same,Heart rate,[2]; Visit 3 (D 90),176
same,Point of maximum intensity,[2]; Visit 3 (D 90),left apical
same,Presence of arrythmia,[2]; Visit 3 (D 90),no
same,Presence of gallop sound,[2]; Visit 3 (D 90),no
same,Timing of murmur,[2]; Visit 3 (D 90),systolic
same,Presence of murmur,[2]; Visit 3 (D 90),yes
same,"echocardiographic parameters (Table 2), cardiac biomarker (Table 3) and abnormal heart murmur over the treatment period","[2]; cat 101, D −7 to D 90",improved continuously
same,general health at study termination,"[2]; cat 101, end of 90 day study",good general health
same,adverse event,[2]; [5],no adverse event
same,re-occurrence of heart failure or pulmonary oedema,[2]; [5],no heart failure or pulmonary oedema re-occurred
same,LA/Ao (left atrium to aorta ratio),[2]; Visit 2 (D 45),1.36
same,LAD max (mm) (Left atrium measured as right parasternal long-axis),[2]; Visit 2 (D 45),13.8 mm
same,LA/Ao (left atrium to aorta ratio),[2]; Visit 3 (D 90),1.07
same,LAD max (mm) (Left atrium measured as right parasternal long-axis),[2]; Visit 3 (D 90),12.6 mm
same,plasma cholesterol,[3],increase
same,plasma concentrations of beta-hydroxybutyrat (BHB),[3],increase
same,plasma non-esterified fatty acids (NEFA),[3],increase

# From patent US20210260090A1, “USE OF SGLT-2 INHIBITORS FOR THE PREVENTION AND/OR TREAT-MENT OF CARDIAC DISEASES IN FELINES” (Boehringer Ingelheim Vetmedica GmbH, priority 2020, published 2021)
